In US11207312B2, “Metallo-beta-lactamase inhibitors and methods of use thereof” (priority 2017, dated 2021):
pIC50: −log10 of the molar value.

How the values were obtained:
[1] = system: P. aeruginosa MB9798 (efflux+, IMP-1 plasmid); settings: for MB9798 MITC95 P. aeruginosa uM Efflux WT: efflux + (MB9798) strain, imipenem at 2 μg/mL, in the presence of a class A, C, D serine β-lactamase inhibitor closely related to relebactam; for Efflux ratio: fold difference between efflux+ (MB9798) and efflux− (MB9799) strains
Summary of the method: (§1)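 PAO1-derived isogenic pair (oprD+, inducible AmpC), efflux+ MB5919 or efflux− MB5890 parent, carrying an electroporated IMP-1 plasmid from a clinical isolate. Microbroth MIC with fixed imipenem and/or ceftazidime (usually CLSI breakpoint) plus fixed class A/C inhibitor; MBL inhibitor serially titrated, concentration restoring susceptibility recorded.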

[2] = molecular target: VIM-2 (Escherichia coli, UniProt Q5U7L7); assay: biochemical; settings: CCF2-FA fluorescence assay; read-out: VIM2 IC50
[3] = system: P. aeruginosa MB9799 (efflux-, IMP-1 plasmid); assay type: cell-based, Pseudomonas aeruginosa; settings: efflux − (MB9799) strain; imipenem at 2 μg/mL; in the presence of a class A, C, D serine β-lactamase inhibitor closely related to relebactam
Summary of the method: as §1

[4] = molecular target: IMP-1 (Serratia marcescens, UniProt P52699); assay: biochemical; settings: CCF2-FA fluorescence assay, 2 hours at 25° C.; read-out: IMP1 IC50
Summary of the method: (§2)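 IC50s come from 4-parameter fits of inhibition versus inhibitor concentration, tested from 20 μM down to 0.00063 μM. Enzyme, CCF2-FA (1.25 μM) and inhibitor react 2 h at 25° C, pH 7, with 10 μM ZnSO4 and 0.005% Tween-20.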

[5] = molecular target: VIM-1 (Pseudomonas aeruginosa (strain ATCC 15692 / DSM 22644 / CIP 104116 / JCM 14847 / LMG 12228 / 1C / PRS 101 / PAO1), UniProt A0A0F7KYQ8); assay: biochemical; settings: CCF2-FA fluorescence assay, 2 hours at 25° C.; read-out: VIM1 IC50
Summary of the method: as §2

[6] = system: Escherichia coli expressing NDM-1 (CLB30016); assay type: cell-based; settings: with imipenem 1 μg/ml; 95% inhibition of bacterial growth
Summary of the method: (§3)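 MITC95 denotes the minimal test-compound level that, combined with 1 μg/ml imipenem, blocks 95% of bacterial growth, measured by absorbance. Overnight-grown clinical isolates were diluted 1:100 in CAMHB and incubated with both agents at 35° C for 22–24 h.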

[7] = system: Klebsiella pneumoniae expressing VIM-1 (IHMA599644); assay type: cell-based; settings: with imipenem 1 μg/ml; 95% inhibition of bacterial growth
Summary of the method: as §3

[8] = system: Serratia marcescens expressing IMP-1 (CL5741); assay type: cell-based; settings: with imipenem 1 μg/ml; 95% inhibition of bacterial growth
Summary of the method: as §3

[9] = molecular target: NDM-1 (Klebsiella pneumoniae, UniProt C7C422); assay: biochemical; assay type: biochemical; settings: CCF2-FA fluorescence assay, 2 hours at 25° C.
Summary of the method: as §2

Chain of NDM-1 (C7C422 whole entry, looked up, species assumed): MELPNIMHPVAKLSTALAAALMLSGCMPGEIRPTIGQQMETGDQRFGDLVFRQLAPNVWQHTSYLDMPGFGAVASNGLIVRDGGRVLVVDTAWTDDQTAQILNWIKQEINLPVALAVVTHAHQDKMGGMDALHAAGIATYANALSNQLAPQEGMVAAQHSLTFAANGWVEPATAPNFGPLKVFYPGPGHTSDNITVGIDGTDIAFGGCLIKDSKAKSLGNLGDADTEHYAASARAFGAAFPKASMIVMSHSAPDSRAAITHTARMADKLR
Chain of IMP-1 (P52699 whole entry, looked up, species assumed): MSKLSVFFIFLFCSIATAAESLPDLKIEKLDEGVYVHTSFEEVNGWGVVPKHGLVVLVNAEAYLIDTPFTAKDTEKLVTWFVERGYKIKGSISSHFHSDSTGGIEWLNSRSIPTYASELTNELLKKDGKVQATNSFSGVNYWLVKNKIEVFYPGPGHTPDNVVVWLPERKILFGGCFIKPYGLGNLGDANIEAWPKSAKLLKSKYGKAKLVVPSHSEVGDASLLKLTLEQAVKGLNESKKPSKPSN

Compound | MB9798 MITC95 P. aeruginosa uM Efflux WT [1] [µM] | Efflux ratio [1] | pIC50 [2] | MB9799 MITC95 P. aeruginosa uM Efflux Mutant [3] [µM] | pIC50 [4] | pIC50 [5] | CLB30016 E. coli MITC95 NDM [6] [µM] | IHMA599644 K. pneumoniae MITC95 VIM [7] [µM] | CL5741 S. marcescens MITC95 IMP [8] [µM] | pIC50 [9]
NCCC1CCCN(c2ccc(S(=O)(=O)NC[C@H](O)CN)c(S(N)(=O)=O)c2-c2nn[nH]n2)CC1 (stereo partly drawn) [Example 140, N1-((R)-3-amino-2-hydroxypropyl)-4-(4-(2-aminoethyl)azepan-1-yl)-3-(2H-tetrazol-5-yl)benzene-1,2-disulfonamide bis(2,2,2-trifluoroacetate)] | 1.56 | 2.00 | 8.73 | 0.78 | 8.20 | 10.00 | 1.56 | 0.78 | 0.78 | 8.43
COC1(CN(C)C)CN(c2ccc(S(=O)(=O)N[C@@H]3CCNC3)c(S(N)(=O)=O)c2-c2nnn[nH]2)C1 [Example 116, 4-{3-[(dimethylamino)methyl]-3-methoxyazetidin-1-yl}-N1-[(3R)-pyrrolidin-3-yl]-3-(1H-tetrazol-5-yl)benzene-1,2-disulfonamide] | 3.13 | 2.00 | 7.19 | 1.56 | 8.34 | 8.16 | 1.56 | 3.13 | 1.56 | 7.53
NS(=O)(=O)c1c(S(=O)(=O)N[C@@H]2CCNC2)ccc(N2CCC(Oc3ccccn3)CC2)c1-c1nnn[nH]1 [Example 110, 4-[4-(pyridin-2-yloxy)piperidin-1-yl]-N1-[(3R)-pyrrolidin-3-yl]-3-(1H-tetrazol-5-yl)benzene-1,2-disulfonamide] | 50.00 | 31.99 | 9.33 | 1.56 | 10.00 | 9.92 | 3.13 | 6.25 | 3.13 | 10.22
NC[C@@H](O)CNS(=O)(=O)c1ccc(N[C@@H]2CCC[C@H]2N)c(-c2nn[nH]n2)c1S(N)(=O)=O [Example 179, N1-((R)-3-amino-2-hydroxypropyl)-4-(((1R,2R)-2-aminocyclopentyl)amino)-3-(2H-tetrazol-5-yl)benzene-1,2-disulfonamide] | 25.00 | 4.00 | 7.08 | 6.25 | 7.16 | 7.30 | 0.78 | 12.50 | 6.25 | 7.58
NCC(CN)NS(=O)(=O)c1ccc(N2CCC(CO)CC2)c(-c2nnn[nH]2)c1S(N)(=O)=O [Example 45, N1-(1,3-diaminopropan-2-yl)-4-(4-(hydroxymethyl)piperidin-1-yl)-3-(1H-tetrazol-5-yl)benzene-1,2-disulfonamide] | 1.56 | 1.00 | 9.13 | 1.56 | 9.28 | 9.64 | 1.56 | 3.13 | 3.13 | 9.57
NCC1CCN(c2ccc(S(=O)(=O)N[C@H](CN)CO)c(S(N)(=O)=O)c2-c2nn[nH]n2)CC1 [Example 186, (R)-N1-(1-amino-3-hydroxypropan-2-yl)-4-(4-(aminomethyl)piperidin-1-yl)-3-(2H-tetrazol-5-yl)benzene-1,2-disulfonamide] | 1.56 | 2.00 | 7.16 | 0.78 | 7.39 | 8.55 | 3.13 | 1.56 | 1.56 | 7.73
NS(=O)(=O)c1c(S(=O)(=O)C2CNC2)ccc(N2CCC(CO)CC2)c1-c1nnn[nH]1 [Example 58, 6-(azetidin-3-ylsulfonyl)-3-[4-(hydroxymethyl)piperidin-1-yl]-2-(1H-tetrazol-5-yl)benzenesulfonamide] | 6.25 | 4.00 | 8.78 | 1.56 | 9.07 | 9.38 | 3.13 | 6.25 | 6.25 | 8.99
N[C@@H]1CCCN(c2ccc(S(=O)(=O)N[C@@H]3CCNC3)c(S(N)(=O)=O)c2-c2nn[nH]n2)C1=O [Example 155] | 6.25 | 2.00 | 8.16 | 3.13 | 7.09 | 8.67 | 0.39 | 1.56 | 3.13 | 8.29
NS(=O)(=O)c1c(S(=O)(=O)N[C@@H]2CCNC2)ccc(N2CC(N3CCOCC3)C2)c1-c1nnn[nH]1 [Example 111, 4-(3-morpholin-4-ylazetidin-1-yl)-N1-[(3R)-pyrrolidin-3-yl]-3-(1H-tetrazol-5-yl)benzene-1,2-disulfonamide] | 12.50 | 8.00 | 8.06 | 1.56 | 8.38 | 8.91 | 0.78 | 3.13 | 1.56 | 8.34
NCC1C2CCC1CN(c1ccc(S(=O)(=O)NC[C@H](O)CN)c(S(N)(=O)=O)c1-c1nn[nH]n1)C2 (stereo partly drawn) [Example 172, N1-((R)-3-amino-2-hydroxypropyl)-4-((1R,5S,8R)-8-(aminomethyl)-3-azabicyclo[3.2.1]octan-3-yl)-3-(2H-tetrazol-5-yl)benzene-1,2-disulfonamide] | 1.17 | 1.00 | 8.42 | 1.17 | 8.46 | 9.18 | 1.17 | 2.34 | 2.34 | 8.67
NS(=O)(=O)c1c(S(=O)(=O)N[C@@H]2CCNC2)ccc(N2CCCCC(O)C2)c1-c1nnn[nH]1 (stereo partly drawn) [Example 104, 4-(3-hydroxyazepan-1-yl)-N1-[(3R)-pyrrolidin-3-yl]-3-(1H-tetrazol-5-yl)benzene-1,2-disulfonamide] | 3.13 | 2.00 | 9.19 | 1.56 | 8.69 | 9.68 | 3.13 | 3.13 | 3.13 | 9.17
